Source: patent US8802597B2, “Herbicidal pyrimidines” (E I du Pont de Nemours and Company, priority 2003, dated 2014)
Like-named read-outs stand apart in the source and are kept apart here.

Legend:
Type in all cases: in vivo
[1] = system: Surinam grass (Brachiaria decumbens); assay: Test B pre/postemergence; details: Urochloa decumbens; for pest or weed control at 125 g/ha: 125 g ai/ha; for pest or weed control at 500 g/ha: 500 g ai/ha
Method in brief: (§1)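 Under greenhouse conditions, seeded pots and young plants (1- to 4-leaf, 2 to 18 cm) were treated at the same time with test chemicals in a non-phytotoxic solvent mixture containing surfactant. Response was assessed visually after 13 to 15 days, from 0 (no effect) to 100 (complete control).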

[2] = system: barnyardgrass (Echinochloa crus-galli); assay: Test B pre/postemergence; details: Echinochloa crus-galli; for pest or weed control at 125 g/ha: 125 g ai/ha; for pest or weed control at 500 g/ha: 500 g ai/ha
Method in brief: as §1

[3] = system: cocklebur (Xanthium strumarium); assay: Test B pre/postemergence; details: Xanthium strumarium; for pest or weed control at 125 g/ha: 125 g ai/ha; for pest or weed control at 500 g/ha: 500 g ai/ha
Method in brief: as §1

corn (Zea mays) = assay: Test B pre/postemergence; details: Zea mays
Method in brief: as §1

[4] = system: crabgrass (Digitaria sanguinalis); assay: Test B pre/postemergence; details: Digitaria sanguinalis; for pest or weed control at 125 g/ha: 125 g ai/ha; for pest or weed control at 500 g/ha: 500 g ai/ha
Method in brief: as §1

[5] = system: giant foxtail (Setaria faberii); assay: Test B pre/postemergence; details: Setaria faberi; for pest or weed control at 125 g/ha: 125 g ai/ha; for pest or weed control at 500 g/ha: 500 g ai/ha
Method in brief: as §1

[6] = system: lambsquarters (Chenopodium album); assay: Test B pre/postemergence; details: Chenopodium album; for pest or weed control at 125 g/ha: 125 g ai/ha; for pest or weed control at 500 g/ha: 500 g ai/ha
Method in brief: as §1

[7] = system: morningglory (Ipomoea coccinea); assay: Test B pre/postemergence; details: Ipomoea; for pest or weed control at 125 g/ha: 125 g ai/ha; for pest or weed control at 500 g/ha: 500 g ai/ha
Method in brief: as §1

[8] = system: pigweed (Amaranthus retroflexus); assay: Test B pre/postemergence; details: Amaranthus retroflexus; for pest or weed control at 125 g/ha: 125 g ai/ha; for pest or weed control at 500 g/ha: 500 g ai/ha
Method in brief: as §1

[9] = system: velvetleaf (Abutilon theophrasti); assay: Test B pre/postemergence; details: Abutilon theophrasti; for pest or weed control at 125 g/ha: 125 g ai/ha; for pest or weed control at 500 g/ha: 500 g ai/ha
Method in brief: as §1

[10] = system: wheat (Triticum aestivum); assay: Test B pre/postemergence; details: Triticum aestivum; for plant injury at 125 g/ha: 125 g ai/ha; for plant injury at 500 g/ha: 500 g ai/ha
Method in brief: as §1

[11] = system: blackgrass (Alopecurus myosuroides); assay: Test B postemergence; details: Alopecurus myosuroides, post-emergence
Method in brief: as §1

wild oat (Avena fatua) = assay: Test B postemergence; details: Avena fatua, post-emergence
Method in brief: as §1

[12] = system: barnyardgrass (Echinochloa crus-galli); assay: Test B flooded paddy test; details: Echinochloa crus-galli, Flood, 1000 g ai/ha; scale 0 (no effect) to 100 (complete control); read-out: Plant response rating, Barnyardgrass
Method in brief: (§2)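 Visual injury scoring (0 = no effect, 100 = complete control) versus controls made 13 to 15 days after treatment in the greenhouse. Test species were grown in flooded paddy to the 2-leaf stage: rice, barnyardgrass, umbrella sedge, duck salad.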

[13] = system: duck salad (Heteranthera limosa); assay: Test B flooded paddy test; details: Heteranthera limosa, Flood, 1000 g ai/ha; scale 0 to 100; read-out: Plant response rating, Ducksalad
Method in brief: as §2

rice (Oryza sativa) = assay: Test B flooded paddy test; details: Oryza sativa, Flood, 1000 g ai/ha; scale 0 to 100; read-out: Plant response rating, Rice
Method in brief: as §2

[14] = system: umbrella sedge (Cyperus difformis); assay: Test B flooded paddy test; details: Cyperus difformis, Flood, 1000 g ai/ha; scale 0 to 100; read-out: Plant response rating, Sedge, Umbrella
Method in brief: as §2

Structure (SMILES): COC(=O)c1nc(C2CC2)nc(N)c1I [Compound 7]
- pest or weed control at 125 g/ha ([1]; post-emergence, Postemergence, scale 0 to 100 (0 no effect, 100 complete control), read-out: Surinam Grass plant response rating): 0%
- pest or weed control at 500 g/ha ([1]; post-emergence, Postemergence, scale 0 to 100, read-out: Plant response rating, Surinam Grass): 20%
- pest or weed control at 125 g/ha ([1]; pre-emergence, Preemergence, scale 0 to 100 (0 no effect, 100 complete control), read-out: Plant response rating, Surinam Grass): 0%
- pest or weed control at 500 g/ha ([1]; pre-emergence, Preemergence, scale 0 to 100 (0 no effect, 100 complete control), read-out: Surinam Grass plant response rating): 0%
- pest or weed control at 125 g/ha ([2]; post-emergence, Postemergence, scale 0 to 100 (0 no effect, 100 complete control), read-out: Barnyardgrass plant response rating): 0%
- pest or weed control at 500 g/ha ([2]; post-emergence, Postemergence, scale 0 to 100, read-out: Plant response rating, Barnyardgrass): 30%
- pest or weed control at 125 g/ha ([2]; pre-emergence, Preemergence, scale 0 to 100 (0 no effect, 100 complete control), read-out: Plant response rating, Barnyardgrass): 0%
- pest or weed control at 500 g/ha ([2]; pre-emergence, Preemergence, scale 0 to 100 (0 no effect, 100 complete control), read-out: Barnyardgrass plant response rating): 30%
- pest or weed control at 125 g/ha ([3]; post-emergence, Postemergence, scale 0 to 100 (0 no effect, 100 complete control), read-out: Cocklebur plant response rating): 90%
- pest or weed control at 500 g/ha ([3]; post-emergence, Postemergence, scale 0 to 100, read-out: Plant response rating, Cocklebur): 100%
- pest or weed control at 125 g/ha ([3]; pre-emergence, Preemergence, scale 0 to 100 (0 no effect, 100 complete control), read-out: Plant response rating, Cocklebur): 70%
- pest or weed control at 500 g/ha ([3]; pre-emergence, Preemergence, scale 0 to 100 (0 no effect, 100 complete control), read-out: Cocklebur plant response rating): 80%
- plant injury at 125 g/ha (corn (Zea mays); post-emergence, Postemergence, 125 g ai/ha, scale 0 to 100 (0 no effect, 100 complete control), read-out: Corn plant response rating): 0%
- Corn plant response rating (crop injury, 0 = no effect, 100 = complete kill) at 500 g/ha (corn (Zea mays); post-emergence, Postemergence, 500 g ai/ha, scale 0 to 100): 30%
- Corn plant response rating (crop injury, 0 = no effect, 100 = complete kill) at 125 g/ha (corn (Zea mays); pre-emergence, Preemergence, 125 g ai/ha, scale 0 to 100 (0 no effect, 100 complete control)): 0%
- plant injury at 500 g/ha (corn (Zea mays); pre-emergence, Preemergence, 500 g ai/ha, scale 0 to 100 (0 no effect, 100 complete control), read-out: Corn plant response rating): 0%
- pest or weed control at 125 g/ha ([4]; post-emergence, Postemergence, scale 0 to 100 (0 no effect, 100 complete control), read-out: Crabgrass plant response rating): 10%
- pest or weed control at 500 g/ha ([4]; post-emergence, Postemergence, scale 0 to 100, read-out: Plant response rating, Crabgrass): 30%
- pest or weed control at 125 g/ha ([4]; pre-emergence, Preemergence, scale 0 to 100 (0 no effect, 100 complete control), read-out: Plant response rating, Crabgrass): 0%
- pest or weed control at 500 g/ha ([4]; pre-emergence, Preemergence, scale 0 to 100 (0 no effect, 100 complete control), read-out: Crabgrass plant response rating): 30%
- pest or weed control at 125 g/ha ([5]; post-emergence, Postemergence, scale 0 to 100 (0 no effect, 100 complete control), read-out: Foxtail, Giant plant response rating): 20%
- pest or weed control at 500 g/ha ([5]; post-emergence, Postemergence, scale 0 to 100, read-out: Plant response rating, Foxtail, Giant): 40%
- pest or weed control at 125 g/ha ([5]; pre-emergence, Preemergence, scale 0 to 100 (0 no effect, 100 complete control), read-out: Plant response rating, Foxtail, Giant): 0%
- pest or weed control at 500 g/ha ([5]; pre-emergence, Preemergence, scale 0 to 100 (0 no effect, 100 complete control), read-out: Foxtail, Giant plant response rating): 0%
- pest or weed control at 125 g/ha ([6]; post-emergence, Postemergence, scale 0 to 100 (0 no effect, 100 complete control), read-out: Lambsquarters plant response rating): 80%
- pest or weed control at 500 g/ha ([6]; post-emergence, Postemergence, scale 0 to 100, read-out: Plant response rating, Lambsquarters): 100%
- pest or weed control at 125 g/ha ([6]; pre-emergence, Preemergence, scale 0 to 100 (0 no effect, 100 complete control), read-out: Plant response rating, Lambsquarters): 80%
- pest or weed control at 500 g/ha ([6]; pre-emergence, Preemergence, scale 0 to 100 (0 no effect, 100 complete control), read-out: Lambsquarters plant response rating): 90%
- pest or weed control at 125 g/ha ([7]; post-emergence, Postemergence, scale 0 to 100 (0 no effect, 100 complete control), read-out: Morningglory plant response rating): 80%
- pest or weed control at 500 g/ha ([7]; post-emergence, Postemergence, scale 0 to 100, read-out: Plant response rating, Morningglory): 90%
- pest or weed control at 125 g/ha ([7]; pre-emergence, Preemergence, scale 0 to 100 (0 no effect, 100 complete control), read-out: Plant response rating, Morningglory): 70%
- pest or weed control at 500 g/ha ([7]; pre-emergence, Preemergence, scale 0 to 100 (0 no effect, 100 complete control), read-out: Morningglory plant response rating): 80%
- pest or weed control at 125 g/ha ([8]; post-emergence, Postemergence, scale 0 to 100 (0 no effect, 100 complete control), read-out: Pigweed plant response rating): 0%
- pest or weed control at 500 g/ha ([8]; post-emergence, Postemergence, scale 0 to 100, read-out: Plant response rating, Pigweed): 90%
- pest or weed control at 125 g/ha ([8]; pre-emergence, Preemergence, scale 0 to 100 (0 no effect, 100 complete control), read-out: Plant response rating, Pigweed): 90%
- pest or weed control at 500 g/ha ([8]; pre-emergence, Preemergence, scale 0 to 100 (0 no effect, 100 complete control), read-out: Pigweed plant response rating): 90%
- pest or weed control at 125 g/ha ([9]; post-emergence, Postemergence, scale 0 to 100 (0 no effect, 100 complete control), read-out: Velvetleaf plant response rating): 50%
- pest or weed control at 500 g/ha ([9]; post-emergence, Postemergence, scale 0 to 100, read-out: Plant response rating, Velvetleaf): 90%
- pest or weed control at 125 g/ha ([9]; pre-emergence, Preemergence, scale 0 to 100 (0 no effect, 100 complete control), read-out: Plant response rating, Velvetleaf): 50%
- pest or weed control at 500 g/ha ([9]; pre-emergence, Preemergence, scale 0 to 100 (0 no effect, 100 complete control), read-out: Velvetleaf plant response rating): 80%
- plant injury at 125 g/ha ([10]; post-emergence, Postemergence, scale 0 to 100 (0 no effect, 100 complete control), read-out: Wheat plant response rating): 50%
- plant injury at 500 g/ha ([10]; post-emergence, Postemergence, scale 0 to 100, read-out: Plant response rating, Wheat): 80%
- plant injury at 125 g/ha ([10]; pre-emergence, Preemergence, scale 0 to 100 (0 no effect, 100 complete control), read-out: Plant response rating, Wheat): 0%
- plant injury at 500 g/ha ([10]; pre-emergence, Preemergence, scale 0 to 100 (0 no effect, 100 complete control), read-out: Wheat plant response rating): 30%
- pest or weed control at 125 g/ha ([11]; 125 g ai/ha, scale 0 to 100 (0 no effect, 100 complete control), read-out: Blackgrass plant response rating): 60%
- pest or weed control at 500 g/ha ([11]; 500 g ai/ha, scale 0 to 100, read-out: Plant response rating, Blackgrass): 80%
- pest or weed control at 125 g/ha (wild oat (Avena fatua); 125 g ai/ha, scale 0 to 100 (0 no effect, 100 complete control), read-out: Oat, Wild plant response rating): 40%
- pest or weed control at 500 g/ha (wild oat (Avena fatua); 500 g ai/ha, scale 0 to 100, read-out: Plant response rating, Oat, Wild): 70%
- pest or weed control at 1000 g/ha [12]: 20%
- pest or weed control at 1000 g/ha [13]: 0%
- plant injury at 1000 g/ha (rice (Oryza sativa)): 0%
- pest or weed control at 1000 g/ha [14]: 0%
